Laboratory results: the supplement of paper PMC10307832

Experiments:
Experiment in all cases: relative viability (nuclei count vs DMSO), 5 days (fraction); higher = more cells survive
AZD8055 + Crizotinib = compound: COc1ccc(-c2ccc3c(N4CCOC[C@@H]4C)nc(N4CCOC[C@@H]4C)nc3n2)cc1CO [AZD8055] + C[C@@H](Oc1cc(-c2cnn(C3CCNCC3)c2)cnc1N)c1c(Cl)ccc(F)c1Cl [Crizotinib] (partner 1 µM)
Method in brief: (§1)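 Lung cancer cell lines, seeded in 1536-well plates, were treated the following day by pin tool with a single drug or with five library-drug doses (not always all listed) in √10 steps on top of a fixed anchor-drug dose. Cells were fixed and nuclei stained in one step after 5 days, and nuclei were counted. Relative viability is the nuclei count for treated wells divided by that for vehicle wells, reported as medians of duplicate plates.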

AZD8055 + Phenformin = compound: COc1ccc(-c2ccc3c(N4CCOC[C@@H]4C)nc(N4CCOC[C@@H]4C)nc3n2)cc1CO [AZD8055] + N=C(N)NC(=N)NCCc1ccccc1 [Phenformin] (partner 250 µM)
Method in brief: as §1

AZD8055 + Navitoclax = compound: COc1ccc(-c2ccc3c(N4CCOC[C@@H]4C)nc(N4CCOC[C@@H]4C)nc3n2)cc1CO [AZD8055] + CC1(C)CCC(c2ccc(Cl)cc2)=C(CN2CCN(c3ccc(C(=O)NS(=O)(=O)c4ccc(N[C@H](CCN5CCOCC5)CSc5ccccc5)c(S(=O)(=O)C(F)(F)F)c4)cc3)CC2)C1 [Navitoclax] (partner 0.5 µM)
Method in brief: as §1

AZD8055 + Decitabine = compound: COc1ccc(-c2ccc3c(N4CCOC[C@@H]4C)nc(N4CCOC[C@@H]4C)nc3n2)cc1CO [AZD8055] + Nc1ncn([C@H]2C[C@H](O)[C@@H](CO)O2)c(=O)n1 [Decitabine] (partner 2 µM)
Method in brief: as §1

Cell Line	relative viability (AZD8055 + Crizotinib; first compound 0.01 µM)	relative viability (AZD8055 + Crizotinib; first compound 0.03162 µM)	relative viability (AZD8055 + Crizotinib; first compound 0.1 µM)	relative viability (AZD8055 + Crizotinib; first compound 0.3162 µM)	relative viability (AZD8055 + Crizotinib; first compound 1 µM)	relative viability (AZD8055 + Phenformin; first compound 0.01 µM)	relative viability (AZD8055 + Phenformin; first compound 0.03162 µM)	relative viability (AZD8055 + Phenformin; first compound 0.1 µM)	relative viability (AZD8055 + Phenformin; first compound 0.3162 µM)	relative viability (AZD8055 + Phenformin; first compound 1 µM)	relative viability (AZD8055 + Navitoclax; first compound 0.01 µM)	relative viability (AZD8055 + Navitoclax; first compound 0.03162 µM)	relative viability (AZD8055 + Navitoclax; first compound 0.1 µM)	relative viability (AZD8055 + Navitoclax; first compound 0.3162 µM)	relative viability (AZD8055 + Navitoclax; first compound 1 µM)	relative viability (AZD8055 + Decitabine; first compound 0.01 µM)	relative viability (AZD8055 + Decitabine; first compound 0.03162 µM)	relative viability (AZD8055 + Decitabine; first compound 0.1 µM)	relative viability (AZD8055 + Decitabine; first compound 0.3162 µM)	relative viability (AZD8055 + Decitabine; first compound 1 µM)
201T	1.09	1.02	0.997	0.772	0.721	0.473	0.438	0.422	0.318	0.314	1.22	1.23	1.21	1.03	0.819	0.863	0.711	0.692	0.579	0.527
A549	0.674	0.689	0.324	0.231	0.0846	0.175	0.155	0.1	0.0798	0.0524	1.21	0.74	0.454	0.189	0.143	0.389	0.101	0.184	0.13	0.101
A-427	1.03	0.849	0.786	0.438	0.403	0.459	0.381	0.321	0.25	0.291	0.987	0.837	0.598	0.376	0.315	0.552	0.491	0.494	0.415	0.389
ABC-1	1.09	1.04	0.812	0.602	0.479	0.198	0.289	0.226	0.197	0.22	–	–	–	–	–	1.16	1.51	0.825	0.697	0.576
BEN	0.956	0.531	0.44	0.351	0.31	0.293	0.26	0.292	0.242	0.228	0.0642	0.064	0.0538	0.0837	0.0613	0.691	0.63	0.435	0.49	0.453
CAL-12T	0.557	0.607	0.521	0.308	0.165	0.567	0.626	0.479	0.23	0.2	1.25	1.24	0.838	0.35	0.23	–	–	–	–	–
COR-L23	0.585	0.738	0.55	0.271	0.169	0.485	0.373	0.341	0.213	0.157	1.01	0.732	0.468	0.229	0.172	0.401	0.298	0.305	0.209	0.191
COR-L 105	0.807	0.875	0.706	0.465	0.292	0.506	0.529	0.35	0.278	0.275	0.914	0.961	0.596	0.358	0.39	0.718	0.714	0.579	0.445	0.431
Calu-6	1.03	0.699	0.556	0.42	0.322	–	–	–	–	–	0.886	0.792	0.621	0.32	0.313	–	–	–	–	–
ChaGo-K-1	1.28	1.21	1.07	1.18	0.887	0.508	0.467	0.494	0.407	0.374	1.09	1.08	1.3	0.655	0.44	0.506	0.425	0.528	0.494	0.441
EBC-1	0.155	0.204	0.197	0.221	0.219	–	–	–	–	–	0.312	0.187	0.213	0.182	0.205	–	–	–	–	–
EKVX	1.21	0.943	0.81	0.524	0.393	0.225	0.247	0.229	0.209	0.188	1.08	1.04	0.797	0.512	0.413	0.361	0.286	0.298	0.251	0.26
EMC-BAC-2	0.764	0.706	0.612	0.337	0.344	0.5	0.42	0.36	0.283	0.258	1.22	1.13	1.05	0.446	0.37	1.02	0.875	0.817	0.498	0.505
EPLC-272H	0.865	0.739	0.498	0.494	0.37	0.326	0.214	0.216	0.198	0.212	1.1	0.842	0.556	0.378	0.35	0.41	0.265	0.272	0.248	0.226
H3255	1.3	0.818	0.718	0.407	0.301	0.349	0.397	0.332	0.279	0.305	0.54	0.443	0.324	0.176	0.172	0.535	0.568	0.48	0.316	0.281
HARA	1.09	1.14	0.855	0.573	0.33	0.548	0.478	0.5	0.307	0.215	1.16	1.13	0.935	0.738	0.393	–	0.355	0.414	0.321	0.357
HCC-15	0.816	0.788	0.746	0.529	0.334	0.547	0.459	0.425	0.286	0.232	0.782	0.591	0.561	0.38	0.293	0.667	0.587	0.597	0.319	0.255

Cell Line	relative viability (AZD8055 + Crizotinib; first compound 0.01 µM)	relative viability (AZD8055 + Crizotinib; first compound 0.03162 µM)	relative viability (AZD8055 + Crizotinib; first compound 0.1 µM)	relative viability (AZD8055 + Crizotinib; first compound 0.3162 µM)	relative viability (AZD8055 + Crizotinib; first compound 1 µM)	relative viability (AZD8055 + Phenformin; first compound 0.01 µM)	relative viability (AZD8055 + Phenformin; first compound 0.03162 µM)	relative viability (AZD8055 + Phenformin; first compound 0.1 µM)	relative viability (AZD8055 + Phenformin; first compound 0.3162 µM)	relative viability (AZD8055 + Phenformin; first compound 1 µM)	relative viability (AZD8055 + Navitoclax; first compound 0.01 µM)	relative viability (AZD8055 + Navitoclax; first compound 0.03162 µM)	relative viability (AZD8055 + Navitoclax; first compound 0.1 µM)	relative viability (AZD8055 + Navitoclax; first compound 0.3162 µM)	relative viability (AZD8055 + Navitoclax; first compound 1 µM)	relative viability (AZD8055 + Decitabine; first compound 0.01 µM)	relative viability (AZD8055 + Decitabine; first compound 0.03162 µM)	relative viability (AZD8055 + Decitabine; first compound 0.1 µM)	relative viability (AZD8055 + Decitabine; first compound 0.3162 µM)	relative viability (AZD8055 + Decitabine; first compound 1 µM)
HCC-44	0.879	0.825	0.662	0.364	0.315	0.216	0.197	0.132	0.158	0.128	0.985	0.891	0.617	0.41	0.448	0.971	0.849	0.812	0.8	0.735
HCC-78	0.303	0.307	0.233	0.213	0.19	0.684	0.64	0.437	0.386	0.35	0.817	0.574	0.339	0.238	0.198	0.729	0.437	0.564	0.381	0.412
IA-LM	0.923	0.472	0.347	0.0713	0.105	–	–	–	–	–	0.566	0.495	0.291	0.109	0.105	–	–	–	–	–
LCLC-103H	1.04	0.918	0.719	0.807	0.484	0.307	0.291	0.268	0.206	0.224	–	–	–	–	–	0.767	0.616	0.532	0.417	0.374
NCI-H358	0.678	0.934	0.69	0.442	0.211	0.362	0.387	0.294	0.151	0.121	–	–	–	–	–	0.22	0.24	0.177	0.134	0.113
NCI-H522	–	–	–	–	–	0.69	0.624	0.669	0.48	0.56	–	–	–	–	–	0.737	0.591	0.619	0.527	0.462
NCI-H650	0.763	0.712	0.626	0.395	0.292	0.473	0.378	0.429	0.305	0.302	–	–	–	–	–	0.35	0.278	0.333	0.29	0.275
NCI-H661	1.06	1.1	1.07	0.634	0.567	0.245	0.262	0.287	0.248	0.261	–	–	–	–	–	0.502	0.482	0.449	0.359	0.331
NCI-H1299	0.998	0.995	0.968	0.891	0.51	–	–	–	–	–	1.05	1.08	1.02	0.939	0.67	–	–	–	–	–
NCI-H1395	–	–	–	–	–	0.447	0.396	0.333	0.394	0.374	1.4	0.97	0.797	0.654	0.498	0.767	0.585	0.615	0.419	0.506
NCI-H1563	0.769	0.81	0.697	0.6	0.679	0.632	0.66	0.617	0.656	0.641	–	–	–	–	–	–	–	–	–	–
NCI-H1648	–	–	–	–	–	–	–	–	–	–	–	–	–	–	–	0.422	0.504	0.42	0.277	0.261
NCI-H1703	0.635	0.489	0.508	0.4	0.222	–	–	–	–	–	0.944	0.702	0.517	0.292	0.337	–	–	–	–	–
NCI-H1793	–	–	–	–	–	0.405	0.272	0.196	0.203	0.207	0.363	0.288	0.205	0.229	0.163	0.435	0.219	0.207	0.181	0.221
NCI-H2228	0.39	0.229	0.286	0.173	0.302	0.307	0.205	0.188	0.133	0.212	0.804	0.86	0.24	0.18	0.244	–	–	–	–	–
NCI-H2342	–	–	–	–	–	0.609	0.495	0.429	0.394	0.437	–	–	–	–	–	0.741	0.653	0.668	0.668	0.504
SW 900	–	–	–	–	–	0.568	0.343	0.489	0.368	0.169	–	–	–	–	–	0.459	0.519	0.472	0.492	0.47
